Results taken from patent US7612099B2, “Vinylogous acid derivatives” (Hoffmann-La Roche Inc., priority 2005, dated 2009).

target: T1, Chymase purified form human skin mast cells (Homo sapiens, UniProt P23946); assay: chymase peptide substrate assay (AAPF-AMC fluorescence); type: biochemical; details: 0.02 mM AAPF-substrate, 1 nM Chymase, pH 7.4, room temperature, 30 min pre-incubation
T1 construct: Chymase purified form human skin mast cells was obtained from Calbiochem; purchased Calbiochem (Merck Biosciences, San Diego, Calif., USA); host or cells: human skin mast cells (tissue-derived, not recombinant)
T1 sequence (P23946 22-247): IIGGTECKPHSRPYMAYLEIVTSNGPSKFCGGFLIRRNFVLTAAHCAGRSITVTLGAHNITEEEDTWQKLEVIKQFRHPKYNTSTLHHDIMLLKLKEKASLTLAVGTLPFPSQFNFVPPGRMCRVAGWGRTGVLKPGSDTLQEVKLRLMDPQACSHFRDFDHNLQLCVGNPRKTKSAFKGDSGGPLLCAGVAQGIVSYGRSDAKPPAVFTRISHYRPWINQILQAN
Experimental: The peptide was synthesized with a purity of 95% from Bachem, Bubendorf, Switzerland). Chymase purified form human skin mast cells was obtained from Calbiochem (Merck Biosciences, San Diego, Calif., USA). The assay buffer was 0.15 M NaCl, 0.05M, Tris HCl, 0.05% CHAPS (3-[(3-Cholamidopropyl)-dimethylammonio]-1-propane sulphonate), 0.1 mg/ml Heparin (Heparin sodium, Sigma, porcine intestinal mucosa), 0.02 mM AAPF-substrate, 1 nM Chymase at pH 7.4. The assay was performed in 96-well plates (Packard Optiplate), with a 0.05 ml volume at room temperature. Chymase activity was indicated by the initial rate of increase in fluorescence at 340/440 nm (excitation/emission) from free 7-amino-4-methylcoumarin released from the substrate. Inhibition of the activity by inhibitory compounds was read after 30 min pre-incubation with the chymase at room temperature in assay buffer without AAPF-substrate. The assay was then started by addition of the indicated concentration of AAPF-substrate.

First: Cc1c(C(C2=C(O)C(C(C)C)N(C)C2=O)c2ccccc2)[nH]c2ccc(F)cc12 (stereo not shown) [Example 11, 3-[(5-Fluoro-3-methyl-1H-indol-2-yl)-phenyl-methyl]-4-hydroxy-5-isopropyl-1-methyl-1,5-dihydro-pyrrol-2-one]
Second: Cc1c(C(C2=C(O)C(c3ccccc3)CC2=O)c2ccccc2)[nH]c2ccc(F)cc12 (stereo not shown) [Example 79, 2-[(5-Fluoro-3-methyl-1H-indol-2-yl)-phenyl-methyl]-3-hydroxy-4-phenyl-cyclopent-2-enone]
The IC50 of the first is 6.5-fold higher: 0.013 µM for the first, 0.002 µM for the second.

Going from `CC(=O)NCCc1c(C(C2=C(O)C(Cc3ccccc3)OC2=O)c2ccccc2)[nH]c2cc(F)ccc12` (stereo not shown) [Example 16, N-(2-{2-[(5-Benzyl-4-hydroxy-2-oxo-2,5-dihydro-furan-3-yl)-phenyl-methyl]-6-fluoro-1H-indol-3-yl}-ethyl)-acetamide] to `CC(=O)NCCc1c(C(C2=C(O)C(c3ccccc3)CC2=O)c2ccccc2)[nH]c2cc(F)ccc12` (stereo not shown) [Example 43, N-(2-{6-Fluoro-2-[(2-hydroxy-5-oxo-3-phenyl-cyclopent-1-enyl)-phenyl-methyl]-1H-indol-3-yl}-ethyl)-acetamide], the IC50 falls from 0.024 µM to 0.003 µM (8-fold). The second is the more potent here.

Going from `CC(=O)NCc1c(C(C2=C(O)[C@@](C)(c3ccccc3)NC2=O)c2ccccc2)[nH]c2cc(C)ccc12` (stereo partly drawn) [Example 63, N-{2-[((R)-4-Hydroxy-5-methyl-2-oxo-5-phenyl-2,5-dihydro-1H-pyrrol-3-yl)-phenyl-methyl]-6-methyl-1H-indol-3-ylmethyl}-acetamide] to `CC(=O)NCc1c(C(C2=C(O)[C@@](C)(c3ccccc3)OC2=O)c2ccccc2)[nH]c2cc(C)ccc12` (stereo partly drawn) [Example 72, N-{2-[((R)-4-Hydroxy-5-methyl-2-oxo-5-phenyl-2,5-dihydro-furan-3-yl)-phenyl-methyl]-6-methyl-1H-indol-3-ylmethyl}-acetamide], the IC50 rises from 0.01 µM to 0.015 µM (1.5-fold).

For `Cc1c(C(C2=C(O)[C@@](C)(c3ccccc3)NC2=O)c2ccccc2)[nH]c2ccc(F)cc12` (stereo partly drawn) [Example 67, (R)-3-[(5-Fluoro-3-methyl-1H-indol-2-yl)-phenyl-methyl]-4-hydroxy-5-methyl-5-phenyl-1,5-dihydro-pyrrol-2-one], the IC50 was 0.005 µM.
